# Assay results published in PubChem BioAssay AID462 (Columbia University Molecular Screening Center, 2006).
# pIC50: −log10 of the molar value. Activity calls are given as the source filed them.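 Rule for the calls: active = activity score of at least 10, based on curve potency, or else summed standardized inhibition across doses; inactive = the rest.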
# Tested on: not listed separately
# Test: inhibitors of NFkB p65 nuclear translocation, confirmation, imaging, HUVEC, TNFalpha stimulation, p65 immunofluorescence (AID 462)
# Conditions: HUVEC TNFa-induced p65 nuclear translocation, imaging; at 8 µM (top of the series)
row,SMILES,inhibition
1,COc1ccc(OCC(=O)OCCN(C)C)cc1,6.8% (inactive)
2,COc1cccc(N2CCN(c3ncnc4c3[nH]c3ccccc34)CC2C)c1 (configuration not stated),66.1%
3,COc1ccc(/C(O)=C2/C(=O)C(=O)N(Cc3ccco3)C2c2cccs2)cc1 (configuration not stated),4.7% (inactive)
4,O=C(CSc1nnc(SCc2ccc(Cl)cc2)s1)N1CCN(C(=O)c2ccco2)CC1,5.9% (inactive)
5,Cc1nn(Cc2ccccc2)c(C)c1NC(=O)CCC(=O)O,-7.5% (inactive)
6,Cn1c(=O)c2c(nc(CN3CCOCC3)n2CC(O)CO)n(C)c1=O (configuration not stated),3.2% (inactive)
7,COc1cc(C)nc(OCCNC(=O)COc2ccc(Cl)cc2C)n1,0.4% (inactive)
8,Clc1ccc(-c2nnc3sc(-c4ccc(Br)o4)nn23)cc1,3.4% (inactive)
9,c1cncc(C2Nc3ccccc3-c3nc4ccccc4n32)c1 (configuration not stated),-5% (inactive)
10,N#Cc1c(N)n(CCOC(=O)c2ccc(Cl)cc2)c2nc3ccccc3nc12,6.7% (inactive)
11,COc1cc(C2C(C#N)=C(N)Oc3cc(N)ccc32)cc(OC)c1OC (configuration not stated),23.6% (inactive)
12,COc1ccc2c(c1)[nH]c1c(=O)n(CC3CCCO3)cnc12 (configuration not stated),-2.7% (inactive)
13,CC1=CC2=C(OC1N(C)C)c1cccc3cccc(c13)C2=O (configuration not stated),5.4% (inactive)
14,Cc1cccc(N2CN=c3s/c(=C\c4ccncc4)c(=O)n3C2)c1,-7.5% (inactive)
15,Cn1c(C(=O)NCCC2=CCCCC2)cc2c(=O)n3ccccc3nc21,-8% (inactive)
16,COc1ccccc1CN1CC(C(=O)N2CCN(c3ccc(F)cc3)CC2)CC1=O (configuration not stated),1.4% (inactive)
17,O=C(O)c1ccc(COCC(F)(F)C(F)F)o1,7.3% (inactive)
18,Cc1csc(SCCn2c(N3CCCC3)nc3c2c(=O)[nH]c(=O)n3C)n1,-7.5% (inactive)
19,Cc1cc(C)n(CC2CC(=O)N(c3cc(Cl)cc(Cl)c3)C2=O)n1 (configuration not stated),6.8% (inactive)
20,COc1ccc(N(C)C(=O)CCS(=O)(=O)c2cccc3nonc23)cc1,-0.8% (inactive)
21,COc1cc(C(O)c2nc3ccccc3n2C)cc(OC)c1OC (configuration not stated),-5.7% (inactive)
22,O=C(Nc1ccc2oc(-c3ccncc3)nc2c1)c1cccs1,0.6% (inactive)
23,O=C(C1CCC(N2C(=O)C3CC=CCC3C2=O)CC1)N1CCCCC1 (configuration not stated),-2.3% (inactive)
24,Cc1c(C2Nc3ccccc3NC3=C2C(=O)CC(C)(C)C3)cnn1C (configuration not stated),4.8% (inactive)
25,CCC(NC(=O)Nc1nnc(C(F)(F)F)s1)(C(F)(F)F)C(F)(F)F,-22.3% (inactive)

row,SMILES,inhibition
1,O=C(COC(=O)c1ccccc1Oc1ccccc1)NC1CCS(=O)(=O)C1 (configuration not stated),-1.2% (inactive)
2,COC(=O)CCC(=O)Nc1cccc(Cl)c1,-0.6% (inactive)
3,CCOc1ccccc1C(=O)N1CCN(c2cccc(Cl)c2)CC1,18.5% (inactive)
4,COc1ccc(OC)c(NS(=O)(=O)c2ccc(N3CCCC3=O)cc2)c1,15.5% (inactive)
5,CC(C)OC(=O)CSc1nnc(Cc2ccccc2)n1Cc1ccco1,-1.5% (inactive)
6,CCCCOc1ccc(-c2nnn(CC(=O)Nc3ncc(CC(=O)OCC)s3)n2)cc1,-1.5% (inactive)
7,CCOc1ccc(C2=Nn3c(nnc3-c3ccccc3OC)SC2)cc1,19.7%
8,Cc1cc(C(C)(C)C)c(O)c(C)c1CC1=NCCN1,7.9% (inactive)
9,CCOC(=O)c1cc2c(=O)n3cccc(C)c3nc2n(CCc2ccccc2)c1=N,17.3% (inactive)
10,CCOC(=O)CCNc1n[nH]c(=O)[nH]c1=O,14.4% (inactive)
11,CN(C(=O)COc1cc(=O)n(C)c2ccccc12)c1ccc(Br)cc1,2.8% (inactive)
12,COc1ccc(C(NC(=O)c2ccco2)c2ccc(OC)c(OC)c2)cc1 (configuration not stated),-3.1% (inactive)
13,CCn1c(C(C#N)/C(=N\S(=O)(=O)c2cccs2)c2ccccc2)nc2ccccc21 (configuration not stated),-1.6% (inactive)
14,Cc1ccc(Cn2ncc3c(N4CCN(Cc5ccc(Cl)cc5)CC4)ncnc32)cc1,-0.2% (inactive)
15,CC1CCCCN1CCNC(=O)c1ccc2c(=O)n(CCc3ccccc3)c(=O)[nH]c2c1 (configuration not stated),4.4% (inactive)
16,COc1ccccc1-c1nnc2n1N=C(c1ccc(O)c(O)c1)CS2,23% (inactive)
17,COc1ccc(CNC(=O)COC(=O)c2n[nH]c3ccccc23)cc1OC,-3.8% (inactive)
18,O=C(CSc1nnc2ncccn12)N1CCCCCC1,-3.2% (inactive)
19,Cc1ccccc1CN1CCNC1=O,-8% (inactive)
20,COc1ccc(OC)c(C2C(C#N)=C(N)Oc3cc(C)n(Cc4ccccn4)c(=O)c32)c1 (configuration not stated),4.2% (inactive)
21,O=C(NCCCN1CCCC1=O)C1CCN(S(=O)(=O)N2CCOCC2)CC1,-10% (inactive)
22,Cc1nc(NC2=NCN(CCc3ccccc3)CN2)nc2c(C)cccc12,1% (inactive)
23,COc1ccc(-n2c(Cc3cccn3C)nnc2SCC(=O)Nc2cccc(Cl)c2)cc1,3.9% (inactive)
24,CCC1Oc2ccccc2N(CC(=O)Nc2ccc(OC)cc2OC)C1=O (configuration not stated),-5% (inactive)
25,COc1ccc(-c2nc3c(c(SCC(=O)N4CCOCC4)n2)COC(C)(C)C3)cc1,1.1% (inactive)

row,SMILES,inhibition
1,Cc1ccc(-n2c(=O)[nH]c3c(C(N)=O)nc(CC(C)C)nc32)cc1,-5.2% (inactive)
2,COC(=O)c1ccc(N2C(=O)CC(N3CCN(C(=O)c4ccco4)CC3)C2=O)cc1 (configuration not stated),11.1% (inactive)
3,COc1ccc(N2CCN(CCCNC(=O)C3CCCN(S(=O)(=O)c4cnc[nH]4)C3)CC2)cc1 (configuration not stated),3.2% (inactive)
4,CC12C(=O)N(CCC(=O)O)C(=O)C1C1C=CC2C1 (configuration not stated),-5.1% (inactive)
5,CC(C)CNS(=O)(=O)c1ccc(CCC(=O)NCc2ccco2)cc1,-5.6% (inactive)
6,COc1cc([C@@H]2c3cc4c(cc3[C@H](O)[C@H]3COC(=O)[C@H]23)OCO4)cc(OC)c1OC,26.3%
7,CCOc1ccc(S(=O)(=O)N(C)C)cc1-c1nc2c(C(C)(C)C)nn(C)c2c(=O)[nH]1,-7.2% (inactive)
8,CN1CCN(c2oc(COc3ccc(-c4ccccc4)cc3)nc2C#N)CC1,2.4% (inactive)
9,CC[C@]1(O)CC2CN(CCc3c([nH]c4ccccc34)[C@@](C(=O)OC)(c3cc4c(cc3OC)N(C=O)[C@H]3[C@@](O)(C(=O)OC)[C@H](OC(C)=O)[C@]5(CC)C=CCN6CC[C@]43[C@@H]65)C2)C1 (some centres not stated),17.2%
10,CCn1c(C(=O)N2CCCC(C(=O)O)C2)cc2sccc21 (configuration not stated),1.8% (inactive)
11,CCN1C(=C2C(=O)c3ccccc3C2=O)C=Cc2ccccc21,-5% (inactive)
12,O=C1[C@@H]2C(c3ccccc3Cl)=NO[C@@H]2C(=O)N1Cc1ccccc1,0% (inactive)
13,CCOc1cc(C2C(C#N)=C(N)Oc3n[nH]c(CC)c32)ccc1OCCN1CCOCC1 (configuration not stated),-2.3% (inactive)
14,Cc1nc(N)[nH]c(=O)c1CCC(=O)OCC(C)C,0% (inactive)
15,COc1ccc(S(=O)(=O)N2CCCC2C(=O)Nc2ccc(C)cc2)cc1 (configuration not stated),-0.4% (inactive)
16,Nn1c(SCC(=O)Nc2ccc(F)cc2)nnc1-c1cccnc1,-0.4% (inactive)
17,CCn1c(CSc2ncccn2)nnc1SCC(=O)N1c2ccccc2CC1C (configuration not stated),-6.1% (inactive)
18,COc1ccc(CC(=O)Nc2ccc(OC)c(NC(=O)c3ccco3)c2)cc1,-6.4% (inactive)
19,Nc1nc(C(=O)N2CCOCC2)nn1S(=O)(=O)c1ccc(Cl)cc1,-1.1% (inactive)
20,O=C(COc1ccc2ccccc2c1)N1CCN(C2CCN(Cc3ccccc3)CC2)CC1,3.5% (inactive)
21,COc1ccccc1CNC(=O)C1CCCN(S(=O)(=O)c2cnc[nH]2)C1 (configuration not stated),-1.1% (inactive)
22,COC(=O)CCC(NC(=O)c1cc(-c2ccc3c(c2)OCCO3)oc1C)C(=O)OC (configuration not stated),-1.9% (inactive)
23,O=C(CN(Cc1ccco1)C(=O)CNS(=O)(=O)c1ccc(Cl)cc1)NCc1ccc(F)cc1,-0.8% (inactive)
24,CC(C)CCNC(=O)NC(=O)CSc1nnc(COc2ccccc2Cl)o1,-7.1% (inactive)

# Tested on: HUVEC TNFa-induced p65 nuclear translocation, imaging
# Test: as above
# Conditions: not given
row,SMILES,pIC50
1,O=S1(=O)Nc2c(ccc3cccnc23)-c2ccccc21,5.68
2,C=CS(=O)(=O)c1ccc(Oc2ccc(S(=O)(=O)C=C)cc2)cc1,5.84
3,C[C@H]1CCC/C=C/C2C[C@H](O)CC2[C@H](O)/C=C/C(=O)O1 (some centres not stated),7.40
